Key:
[1] = tested on: rheumatoid arthritis (RA) DBA mouse caused by collagen; assay: Collagen-induced rheumatoid arthritis (RA) mouse model, histomorphometry of thymus, spleen and knee joint; assay type: in vivo
Source text: Bone tissue was amputated from around the thymus and spleen and fixed in 10% neutral formalin, and was then dehydrated and paraffin embedded to provide a 3-4 μm longitudinal section, then dyed with Hematoxylineosin and observed under an optical microscope. In addition, the knee joint of both the rear legs were removed from the around connective tissue and fixed in 10% neutral formalin, and then it was decalcificated using a decalcification solution containing 24.4% of formic acid and 0.5 N of sodium hydroxide for 5 days. […] Then the section was dyed with Hematoxylineosin and observed under the optical microscope. […] DMI, Korea) in the view of a 40×-magnification microscope, and the thickness of articular cartilage of the femur and tibia of the knee joint, the proteoglycan loss, and erosion were evaluated by an automated image analyzer (DMI-300 Image Processing; DMI, Korea) in the view of a 100×-magnification microscope according to the known method [Dudler et al., 2000; van Holten et al., 20 04; Kim et al., 2007]. The proteoglycan loss was evaluated into 3 levels for stainability of Safranin O dye specialized for proteoglycans according to the known method [Williams et al., 1992; Dudler et al., 2000; van Holten et al., 2004]. In other words, 0 indicates no proteoglycan loss, and 3 indicates no stainability because of complete deflection. […] The RA(Rhematoid Arthritis)-induced mouse model using collagen is one of the animal models that are widely used for evaluating the efficacy on RA for various materials [Liu et al., 2008; Miyake et al., 2008; Pa nayi et al., 2008], and RA was caused by the auto-immunity.

[2] = tested on: Sprague-Dawley rats caused to have osteoarthritis; assay: Osteoarthritis caused by anterior cruciate ligament transection and partial medial meniscectomy, 84 days administration
Experimental: Sprague-Dawley rats (male, 6 week-old, SLC., JAPAN) [ANNEX I-III] were prepared as laboratory animals.
Six experimental groups were formed, with 8 Sprague-Dawley Rats in each group. […] In addition, a negative control group was an OA control group which was treated with nothing after causing osteoarthritis, and a positive control group was administered 2 mg/kg of diclofenac sodium after causing osteoarthritis.
The medium for the administration was sterilized distilled water at 5 ml/kg.
For the positive control, 2 mg/kg of the diclofenac sodium was transdermally administered at 1 ml/kg of normal saline as a medium every day for 84 days.
Each experimental rat was anesthetized with Zoletile 50 (Vir bac Lab., France), and the left articular capsule was exposed and underwent anterior cruciate ligament transaction and partial medial meniscectomy to cause osteoarthritis. For the sham surgery group, the articular capsule was excised to observe the medial meniscus inside the organ and closed without surgical removal.
Weight change and knee joint thickness change were monitored and measured once a week for 84 days from administration, and on the final day, the maximum stretching angle of the knee joint and the knee joint thickness after exposing the capsule were measured under Safranin O dye, respectively. The Makin scores of the femur and tibia and the cartilage thickness were then histomorphometrically measured, and the articular cartilages of the femur and tibia were each evaluated for BrdU immunoreactivity.

[3] = Diclofenac sodium treated group (dose not given)
[4] = Diclofenac sodium treated group (dose not given), average ± SD of 8 animals
[5] = Diclofenac sodium treated group (dose not given), ± SD of 16 joints
[6] = diclofenac sodium group (dose not given)
[7] = diclofenac sodium 2 mg/kg transdermal daily 84 days

Question: `O=C(O)Cc1ccccc1Nc1c(Cl)cccc1Cl` [Diclofenac sodium, diclofenac sodium] was tested. Which “Cortex thickness (thymus)” value [1, 3] did it give?
Answer: 1.333 ± 0.705 mm/lobules

Question: And the “Total thickness (thymus)” value [1, 3]?
Answer: 1.941 ± 0.916 mm/lobules

Question: What about the “Entire thickness (spleen)” value [1, 4] of the same molecule?
Answer: 4.464 ± 0.58 mm/central part

Question: And the “Number of white medulla (spleen)” value [1, 4]?
Answer: 10.500 ± 2.121 /1 mm^2

Question: What about the “Thickness of white medulla (spleen)” value [1, 4] of the same molecule?
Answer: 0.986 ± 0.304 mm/white medulla

Question: And the “Erosion level (Max = 3), femur articular cartilage” value [1, 5]?
Answer: 1.000 ± 0.000

Question: What about the “Erosion level (Max = 4), tibia articular cartilage” value [1, 5] of the same molecule?
Answer: 0.500 ± 1.000

Question: What about the “Safranin level (Max = 3), femur articular cartilage” value [1, 5] of the same molecule?
Answer: 0.500 ± 0.577

Question: What about the “Safranin level (Max = 3), tibia articular cartilage” value [1, 5] of the same molecule?
Answer: 1.500 ± 0.577

Question: And the “Thickness (mm) of tibia articular cartilage” value [1, 5]?
Answer: 0.169 ± 0.024 mm

Question: What about the “Thickness of the femur articular cartilage” value [1, 5] of the same molecule?
Answer: 0.470 ± 0.674 mm

Question: What about the “collagen-induced RA opinion (proteoglycan loss, erosion, cartilage thickness of knee joint)” value ([1]; all Polycan groups except 21.25 mg/kg in the tibia, diclofenac sodium group) of the same molecule?
Answer: remarkably suppressed

Question: What about the “Safranin O score of femur articular cartilage, change compared to the RA control group” value [1, 6] of the same molecule?
Answer: −63.64%

Question: And the “Safranin O score of the tibia articular cartilage, change compared to the RA control group” value [1, 6]?
Answer: −29.41%

Question: And the “diameter of the spleen white medulla, change compared to the RA control group” value [1, 6]?
Answer: −8.14%

Question: What about the “entire spleen thickness, change compared to the RA control group” value [1, 6] of the same molecule?
Answer: 17.49%

Question: What about the “entire thymus thickness, change compared to the RA control group” value [1, 6] of the same molecule?
Answer: −2.80%

Question: And the “erosion score of the femur articular cartilage, change compared to the RA control group” value [1, 6]?
Answer: −36.00%

Question: What about the “erosion score of the tibia articular cartilage, change compared to the RA control group” value [1, 6] of the same molecule?
Answer: −75.00%

Question: And the “number of spleen white medulla, change compared to the RA control group” value [1, 6]?
Answer: 5.00%

Question: And the “thickness of the femur joint cartilage, change compared to the RA control group” value [1, 6]?
Answer: 333.70%

Question: What about the “thickness of the thymus cortex, change compared to the RA control group” value [1, 6] of the same molecule?
Answer: 18.83%

Question: What about the “thickness of the tibia articular cartilage, change compared to the RA control group” value [1, 6] of the same molecule?
Answer: 38.75%

Question: What about the “BrdU immunoreactive cell number in the femur articular cartilage, change compared to the OA control group” value [2, 7] of the same molecule?
Answer: 9.52%

Question: And the “BrdU immunoreactive cell number in the tibia articular cartilage, change compared to the OA control group” value [2, 7]?
Answer: 1.56%

Question: And the “Mankin score of the femur, change compared to the OA control group” value [2, 7]?
Answer: −27.85%

Question: And the “Mankin score of the tibia, change compared to the OA control group” value [2, 7]?
Answer: −20.59%

Question: What about the “maximum stretching angle of knee joint, change compared to the OA control group” value [2, 7] of the same molecule?
Answer: −18.18%

Question: And the “thickness of the knee joint after exposing the joint capsule, change compared to the OA control group” value [2, 7]?
Answer: −0.99%

Question: And the “thickness of the knee joint in the final autopsy, change compared to the OA control group” value [2, 7]?
Answer: −5.79%

Question: What about the “articular cartilage thickness of the femur, change compared to the OA control group” value ([2]; diclofenac sodium 2 mg/kg transdermal daily 84 days, b105) of the same molecule?
Answer: 35.11%

Question: What about the “thickness of the knee joint compared to osteoarthritis-caused control group over time” value ([2]; each of the three-dose Polycan and diclofenac sodium groups, from 21 days after administration, p<0.01 or p<0.05) of the same molecule?
Answer: significantly decreased

Reference: patent US20130079299A1, “Arthritis Therapeutic Agent” (GLUCAN CORPORATION, priority 2010, published 2013)
